Source: patent US20250170141A1, “MRGPRX2 MODULATORS AND RELATED METHODS OF TREATMENT” (Escient Pharmaceuticals, Inc., priority 2023, published 2025)

Target: T1, human MRGPRX2 (Homo sapiens, UniProt Q96LB1)
T1 construct: expressed in transfected cells; host or cells: CHO cells, stably transfected (G418 and Hygromycin B selection)
T1 sequence (Q96LB1 1-330): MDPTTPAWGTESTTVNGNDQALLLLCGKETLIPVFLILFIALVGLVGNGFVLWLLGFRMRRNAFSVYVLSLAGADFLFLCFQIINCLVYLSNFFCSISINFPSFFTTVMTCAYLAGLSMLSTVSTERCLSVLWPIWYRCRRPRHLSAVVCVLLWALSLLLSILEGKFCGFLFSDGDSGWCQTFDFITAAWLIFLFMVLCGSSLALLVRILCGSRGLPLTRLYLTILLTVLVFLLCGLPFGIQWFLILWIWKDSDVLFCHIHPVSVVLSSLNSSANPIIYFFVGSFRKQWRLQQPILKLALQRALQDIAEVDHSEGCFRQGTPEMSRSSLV
Test: MRGPRX2 activity: IP-One Gq HTRF assay in CHO cells, antagonism versus 0.3 uM Cortistatin-14
Assay type: cell-based
Conditions: versus 0.3 uM Cortistatin-14 agonist, CHO cells expressing human MRGPRX2, read-out: MRGPRX2 Antagonist Activity
Protocol: CHO cells stably transfected to express human MRGPRX2 were maintained in an incubator at 37° C. with 5% CO2 and grown in F12 (HAM) media with 10% fetal bovine serum (FBS), 1% Glutamax, 1% penicillin/streptomycin, 800 μg/mL Geneticin (G418), and 300 μg/mL Hygromycin B.
Cells were plated in a 384-well assay plate at 20,000 cells per well in 12 μL of Opti-MEM and kept in an incubator overnight. On the day of the assay, compounds solubilized at 10 mM in DMSO were added as a 10-point curve (30 uM final top concentration with 1:3 serial dilutions) using a Tecan D300E digital dispenser. Agonists were diluted in assay buffer (final concentrations of 5.7 mM Tris-HCl, 43 mM NaCl, 50 mM LiCl, pH=8) and 2 μL of the agonist Cortistatin-14 (CPC Scientific, catalog CORT-002) are added to each well. Final concentrations of agonists were 0.3 μM Cortistatin. Final concentrations of DMSO were kept consistent across the plate. Plates were incubated in the dark for 1 h at 37° C. and then for 1 h at room temperature. IP-1 standards and HTRF detection reagents were added according to the IP-One—Gq Kit purchased from Cisbio (part number 62IPAPEJ) and incubated in the dark for 1 h at room temperature. The plate was read on a Molecular Devices SpectraMax iD5 plate reader. The HTRF ratio was calculated from the raw data and graphed using GraphPad Prism to calculate an IC50 value for each compound.
The activity ranges are denoted as follows: “+++++” denotes antagonist activity <100 nM; “++++” denotes antagonist activity between 100 and 500 nM; “+++” denotes activity between 501 and 1000 nM; “++” denotes activity between 1001 and 2500 nM; and “+” denotes activity >2500 nM.

**Q.** For `O=S1(=O)N=C(NCc2cccc(F)n2)Nc2c1ccc(F)c2Cc1ccccc1Cl` [Compound 4-2, 5-(2-chlorobenzyl)-6-fluoro-3-(((6-fluoropyridin-2-yl)methyl)amino)-4H-benzo[e][1,2,4]thiadiazine 1,1-dioxide], which IC50 is on record?
**A.** 100 to 500 nM

**Q.** For `Cc1ccc(Cc2cccc3c2NC(NCc2ccccc2F)=NS3(=O)=O)cc1` [Compound 6-16, 3-((2-fluorobenzyl)amino)-5-(4-methylbenzyl)-4H-benzo[e][1,2,4]thiadiazine 1,1-dioxide], which IC50 is on record?
**A.** 100 to 500 nM

**Q.** `O=S1(=O)N=C(NCc2cccc3ccccc23)Nc2c1ccc(F)c2Oc1ccccc1Cl` [Compound 2-6, 5-(2-chlorophenoxy)-6-fluoro-3-((naphthalen-1-ylmethyl)amino)-4H-benzo[e][1,2,4]thiadiazine 1,1-dioxide] was tested. Which IC50 did it give?
**A.** 100 to 500 nM

**Q.** For `O=S1(=O)N=C(NCc2ncccc2F)Nc2c1ccc(F)c2Oc1ccccc1-c1ccccc1` [Compound 1-35, 5-([1,1′-biphenyl]-2-yloxy)-6-fluoro-3-(((3-fluoropyridin-2-yl)methyl)amino)-4H-benzo[e][1,2,4]thiadiazine 1,1-dioxide], which IC50 is on record?
**A.** 1000 to 2500 nM

**Q.** With `O=C(c1ccccc1Cl)c1c(F)ccc2c1NC(NCc1ncccc1F)=NS2(=O)=O` [Compound 16-6, (2-chlorophenyl)(6-fluoro-3-(((3-fluoropyridin-2-yl)methyl)amino)-1,1-dioxido-4H-benzo[e][1,2,4]thiadiazin-5-yl)methanone] as the compound, how does the IC50 read?
**A.** 100 to 500 nM

**Q.** How did the IC50 turn out when `O=S1(=O)N=C(NCc2ncccc2F)Nc2c1ccc(F)c2/C=C/c1ccccc1F` [Compound 14-2, (E)-6-fluoro-3-(((3-fluoropyridin-2-yl)methyl)amino)-5-(2-fluorostyryl)-4H-benzo[e][1,2,4]thiadiazine 1,1-dioxide] was run?
**A.** 100 to 500 nM

**Q.** Which IC50 does the source give for `Cc1cccc(C)c1Cc1c(F)ccc2c1NC(NCc1ncccc1F)=NS2(=O)=O` [Compound 5-1, 5-(2,6-dimethylbenzyl)-6-fluoro-3-(((3-fluoropyridin-2-yl)methyl)amino)-4H-benzo[e][1,2,4]thiadiazine 1,1-dioxide] here?
**A.** < 100 nM

**Q.** With `CC(c1ccccc1F)c1c(F)ccc2c1NC(NCc1cc(F)ccc1F)=NS2(=O)=O` (stereo not shown) [Compound 9-3, 3-((2,5-difluorobenzyl)amino)-6-fluoro-5-(1-(2-fluorophenyl)ethyl)-4H-benzo[e][1,2,4]thiadiazine 1,1-dioxide] as the compound, how does the IC50 read?
**A.** < 100 nM

**Q.** With `CC(c1c(F)ccc2c1NC(NCc1cccc(F)c1)=NS2(=O)=O)c1c[nH]c2ccccc12` (stereo not shown) [Compound 22-18, 5-(1-(1H-indol-3-yl)ethyl)-6-fluoro-3-((3-fluorobenzyl)amino)-4H-benzo[e][1,2,4]thiadiazine 1,1-dioxide] as the compound, how does the IC50 read?
**A.** 100 to 500 nM

**Q.** For `CC(c1ccc(F)c(C#N)c1)c1c(F)ccc2c1NC(NCc1cccc(F)c1)=NS2(=O)=O` (stereo not shown) [Compound 22-27, 2-fluoro-5-(1-(6-fluoro-3-((3-fluorobenzyl)amino)-1,1-dioxido-4H-benzo[e][1,2,4]thiadiazin-5-yl)ethyl)benzonitrile], which IC50 is on record?
**A.** < 100 nM

**Q.** With `Cc1ccc(CNC2=NS(=O)(=O)c3cccc(Cc4ccccc4Cl)c3N2)c(C)c1` [Compound 12-8, 5-(2-chlorobenzyl)-3-((2,4-dimethylbenzyl)amino)-4H-benzo[e][1,2,4]thiadiazine 1,1-dioxide] as the compound, how does the IC50 read?
**A.** < 100 nM

**Q.** How did the IC50 turn out when `COc1ccccc1C(C)c1c(F)ccc2c1NC(NCc1cccc(F)c1)=NS2(=O)=O` (stereo not shown) [Compound 22-26, 6-fluoro-3-((3-fluorobenzyl)amino)-5-(1-(2-methoxyphenyl)ethyl)-4H-benzo[e][1,2,4]thiadiazine 1,1-dioxide] was run?
**A.** < 100 nM

**Q.** Which IC50 does the source give for `CC(c1ccccc1F)c1c(F)ccc2c1NC(NCc1cc(Cl)cc(Cl)c1)=NS2(=O)=O` (stereo not shown) [Compound 7-8, 3-((3,5-dichlorobenzyl)amino)-6-fluoro-5-(1-(2-fluorophenyl)ethyl)-4H-benzo[e][1,2,4]thiadiazine 1,1-dioxide] here?
**A.** < 100 nM

**Q.** With `CC(c1ccccc1F)c1c(F)ccc2c1NC(NCc1cccc(F)n1)=NS2(=O)=O` (stereo not shown) [Compound 9-5, 6-fluoro-5-(1-(2-fluorophenyl)ethyl)-3-(((6-fluoropyridin-2-yl)methyl)amino)-4H-benzo[e][1,2,4]thiadiazine 1,1-dioxide] as the compound, how does the IC50 read?
**A.** < 100 nM

**Q.** How did the IC50 turn out when `O=S1(=O)N=C(NCc2ncccc2F)Nc2c1ccc(F)c2Oc1c(Cl)ccc2ccccc12` [Compound 1-34, 5-((2-chloronaphthalen-1-yl)oxy)-6-fluoro-3-(((3-fluoropyridin-2-yl)methyl)amino)-4H-benzo[e][1,2,4]thiadiazine 1,1-dioxide] was run?
**A.** < 100 nM

**Q.** With `COc1cc(F)ccc1CNC1=NS(=O)(=O)c2cccc(Cc3ccccc3Cl)c2N1` [Compound 12-9, 5-(2-chlorobenzyl)-3-((4-fluoro-2-methoxybenzyl)amino)-4H-benzo[e][1,2,4]thiadiazine 1,1-dioxide] as the compound, how does the IC50 read?
**A.** < 100 nM

**Q.** How did the IC50 turn out when `O=S1(=O)N=C(NCc2ccc(F)cc2)Nc2c1ccc(F)c2Oc1ccccc1Cl` [Compound 1-12, 5-(2-chlorophenoxy)-6-fluoro-3-((4-fluorobenzyl)amino)-4H-benzo[e][1,2,4]thiadiazine 1,1-dioxide] was run?
**A.** 100 to 500 nM

**Q.** For `O=S1(=O)N=C(NCc2ncccc2F)Nc2c1ccc(F)c2Cc1ccccc1Cl` [Compound 4-1, 5-(2-chlorobenzyl)-6-fluoro-3-(((3-fluoropyridin-2-yl)methyl)amino)-4H-benzo[e][1,2,4]thiadiazine 1,1-dioxide], which IC50 is on record?
**A.** < 100 nM

**Q.** `CC(c1ccc(Oc2ccccc2)cc1)c1c(F)ccc2c1NC(NCc1cccc(F)c1)=NS2(=O)=O` (stereo not shown) [Compound 22-15, 6-fluoro-3-((3-fluorobenzyl)amino)-5-(1-(4-phenoxyphenyl)ethyl)-4H-benzo[e][1,2,4]thiadiazine 1,1-dioxide] was tested. Which IC50 did it give?
**A.** 501 to 1000 nM

**Q.** How did the IC50 turn out when `Cc1c(F)cccc1CNC1=NS(=O)(=O)c2ccc(F)c(C(C)c3cccc(F)c3Cl)c2N1` (stereo not shown) [Compound 7-2, 5-(1-(2-chloro-3-fluorophenyl)ethyl)-6-fluoro-3-((3-fluoro-2-methylbenzyl)amino)-4H-benzo[e][1,2,4]thiadiazine 1,1-dioxide] was run?
**A.** < 100 nM

**Q.** How did the IC50 turn out when `COc1ccccc1CNC1=NS(=O)(=O)c2cccc(Cc3ccccc3Cl)c2N1` [Compound 12-24, 5-(2-chlorobenzyl)-3-((2-methoxybenzyl)amino)-4H-benzo[e][1,2,4]thiadiazine 1,1-dioxide] was run?
**A.** < 100 nM

**Q.** `CC(C)(c1ccccc1F)c1cccc2c1NC(NCc1ncccc1Cl)=NS2(=O)=O` [Compound 15-1, 3-(((3-chloropyridin-2-yl)methyl)amino)-5-(2-(2-fluorophenyl)propan-2-yl)-4H-benzo[e][1,2,4]thiadiazine 1,1-dioxide] was tested. Which IC50 did it give?
**A.** 501 to 1000 nM

**Q.** For `CC(c1ccccc1F)c1c(F)ccc2c1NC(NCc1ccc(F)c(Cl)c1)=NS2(=O)=O` (stereo not shown) [Compound 7-7, 3-((3-chloro-4-fluorobenzyl)amino)-6-fluoro-5-(1-(2-fluorophenyl)ethyl)-4H-benzo[e][1,2,4]thiadiazine 1,1-dioxide], which IC50 is on record?
**A.** < 100 nM

**Q.** With `O=S1(=O)N=C(NCc2ccccc2F)Nc2c(Cc3ccccc3)cccc21` [Compound 6-3, 5-benzyl-3-((2-fluorobenzyl)amino)-4H-benzo[e][1,2,4]thiadiazine 1,1-dioxide] as the compound, how does the IC50 read?
**A.** < 100 nM

**Q.** How did the IC50 turn out when `O=S1(=O)N=C(NCc2ncccc2F)Nc2c1cc(Cl)c(F)c2Oc1ccccc1Cl` [Compound 1-47, 7-chloro-5-(2-chlorophenoxy)-6-fluoro-3-(((3-fluoropyridin-2-yl)methyl)amino)-4H-benzo[e][1,2,4]thiadiazine 1,1-dioxide] was run?
**A.** 501 to 1000 nM
